Laboratory results from PubChem BioAssay AID1963828 (Molecular Pharmacology Branch, DTP, NCI, 2024).

System: 991263-137-R1-J2-PDC complex spheroid viability
Experiment: Anticancer human tumor 991263-137-R1-J2-PDC patient-derived colon adenocarcinoma cell line growth inhibition [POLQ]
Details: for IC50: curve of first compound; for viability, T/C: stronger effect = lower value
Outline: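 PDC + HUVEC + MSC complex spheroids; POLQ inhibitors ± partner drugs; top conc. at/near clinical Cmax, else 10 microM (SN-38 1 microM), half-log dilutions; 37 degrees C, 5% CO2.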

[1] = second compound 0.0316 µM, first compound 0.0316 µM
[2] = second compound 0.0316 µM, first compound 0.1 µM
[3] = second compound 0.0316 µM, first compound 0.316 µM
[4] = second compound 0.0316 µM, first compound 1 µM
[5] = second compound 0.0316 µM, first compound 3.16 µM
[6] = second compound 0.0316 µM, first compound 10 µM
[7] = second compound 0.1 µM, first compound 0.0316 µM
[8] = second compound 0.1 µM, first compound 0.1 µM
[9] = second compound 0.1 µM, first compound 0.316 µM
[10] = second compound 0.1 µM, first compound 1 µM
[11] = second compound 0.1 µM, first compound 3.16 µM
[12] = second compound 0.1 µM, first compound 10 µM
[13] = second compound 0.316 µM, first compound 0.0316 µM
[14] = second compound 0.316 µM, first compound 0.1 µM
[15] = second compound 0.316 µM, first compound 0.316 µM
[16] = second compound 0.316 µM, first compound 1 µM
[17] = second compound 0.316 µM, first compound 3.16 µM
[18] = second compound 0.316 µM, first compound 10 µM
[19] = second compound 1 µM, first compound 0.0316 µM
[20] = second compound 1 µM, first compound 0.1 µM
[21] = second compound 1 µM, first compound 0.316 µM
[22] = second compound 1 µM, first compound 1 µM
[23] = second compound 1 µM, first compound 3.16 µM
[24] = second compound 1 µM, first compound 10 µM
[25] = second compound 3.16 µM, first compound 0.0316 µM
[26] = second compound 3.16 µM, first compound 0.1 µM
[27] = second compound 3.16 µM, first compound 0.316 µM
[28] = second compound 3.16 µM, first compound 1 µM
[29] = second compound 3.16 µM, first compound 3.16 µM
[30] = second compound 3.16 µM, first compound 10 µM
[31] = second compound 10 µM, first compound 0.0316 µM
[32] = second compound 10 µM, first compound 0.1 µM
[33] = second compound 10 µM, first compound 0.316 µM
[34] = second compound 10 µM, first compound 1 µM
[35] = second compound 10 µM, first compound 3.16 µM
[36] = second compound 10 µM, first compound 10 µM
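Further: spheroids exposed to compounds for 7 days before readout.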
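Wherever viability, T/C is given: 100% = DMSO vehicle control viability.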

Q: Which results are given for `COc1cc2cc(C(=O)CCC(=O)O)sc2cc1OC` + Cc1cccc(N(C)C(=O)C2C(O)CCN2c2nc(C)cc(C(F)(F)F)c2C#N)c1?
A: IC50 (second compound 0.0316 µM): > 10 µM; IC50 (second compound 0.1 µM): > 10 µM; IC50 (second compound 0.316 µM): > 10 µM; IC50 (second compound 1 µM): > 10 µM; IC50 (second compound 3.16 µM): > 10 µM; IC50 (second compound 10 µM): > 10 µM; viability, T/C [1]: 100%; viability, T/C [2]: 103%; viability, T/C [3]: 99.8%; viability, T/C [4]: 95.8%; viability, T/C [5]: 102%; viability, T/C [6]: 81.8%; viability, T/C [7]: 91.5%; viability, T/C [8]: 88.8%; viability, T/C [9]: 95.4%; viability, T/C [10]: 93.6%; viability, T/C [11]: 95.7%; viability, T/C [12]: 77%; viability, T/C [13]: 102%; viability, T/C [14]: 92.8%; viability, T/C [15]: 101%; viability, T/C [16]: 102%; viability, T/C [17]: 97.4%; viability, T/C [18]: 71.2%; viability, T/C [19]: 91.2%; viability, T/C [20]: 103%; viability, T/C [21]: 91.5%; viability, T/C [22]: 88%; viability, T/C [23]: 108%; viability, T/C [24]: 74.2%; viability, T/C [25]: 87.8%; viability, T/C [26]: 94.1%; viability, T/C [27]: 90.3%; viability, T/C [28]: 110%; viability, T/C [29]: 87.2%; viability, T/C [30]: 80%; viability, T/C [31]: 86%; viability, T/C [32]: 97.5%; viability, T/C [33]: 97.9%; viability, T/C [34]: 101%; viability, T/C [35]: 102%; viability, T/C [36]: 81%

Q: With `COc1ccc([C@@H](O)c2cc(-c3ncnc4cc(N5CCOCC5)ccc34)c(F)cc2Cl)nn1` + Cc1cccc(N(C)C(=O)C2C(O)CCN2c2nc(C)cc(C(F)(F)F)c2C#N)c1 as the compound, how does the IC50 (second compound 0.0316 µM) read?
A: 2.6 µM

Q: What about the IC50 (second compound 0.1 µM) of the same compound?
A: 5.78 µM

Q: And the IC50 (second compound 0.316 µM)?
A: 5.97 µM

Q: What about the IC50 (second compound 1 µM) of the same compound?
A: 6.2 µM

Q: And the IC50 (second compound 3.16 µM)?
A: 5.68 µM

Q: What about the IC50 (second compound 10 µM) of the same compound?
A: 3.76 µM

Q: What about the viability, T/C [1] of the same compound?
A: 101%

Q: What about the viability, T/C [2] of the same compound?
A: 88.1%

Q: And the viability, T/C [3]?
A: 93.3%

Q: What about the viability, T/C [4] of the same compound?
A: 110%

Q: And the viability, T/C [5]?
A: 40.1%

Q: What about the viability, T/C [6] of the same compound?
A: 27.1%

Q: And the viability, T/C [7]?
A: 116%

Q: And the viability, T/C [8]?
A: 104%

Q: What about the viability, T/C [9] of the same compound?
A: 98.1%

Q: And the viability, T/C [10]?
A: 88%

Q: What about the viability, T/C [11] of the same compound?
A: 76.4%

Q: What about the viability, T/C [12] of the same compound?
A: 29.3%

Q: And the viability, T/C [13]?
A: 103%

Q: And the viability, T/C [14]?
A: 103%

Q: And the viability, T/C [15]?
A: 84.9%

Q: And the viability, T/C [16]?
A: 87.5%

Q: And the viability, T/C [17]?
A: 68.9%

Q: What about the viability, T/C [18] of the same compound?
A: 34.9%

Q: And the viability, T/C [19]?
A: 99.5%

Q: And the viability, T/C [20]?
A: 114%

Q: What about the viability, T/C [21] of the same compound?
A: 75.2%

Q: What about the viability, T/C [22] of the same compound?
A: 89%

Q: What about the viability, T/C [23] of the same compound?
A: 76.3%

Q: What about the viability, T/C [24] of the same compound?
A: 33.1%

Q: And the viability, T/C [25]?
A: 97.5%

Q: And the viability, T/C [26]?
A: 92.8%

Q: What about the viability, T/C [27] of the same compound?
A: 77.9%

Q: What about the viability, T/C [28] of the same compound?
A: 79.5%

Q: And the viability, T/C [29]?
A: 75.5%

Q: What about the viability, T/C [30] of the same compound?
A: 29.4%

Q: And the viability, T/C [31]?
A: 85.3%

Q: And the viability, T/C [32]?
A: 117%

Q: And the viability, T/C [33]?
A: 86%

Q: What about the viability, T/C [34] of the same compound?
A: 90.5%

Q: What about the viability, T/C [35] of the same compound?
A: 53.2%

Q: And the viability, T/C [36]?
A: 30%
